Experiment: Relaxivity measurement (T1 by inversion recovery spin echo in aqueous phantoms, Varian 9.4T MRI system)
Type: physicochemical
Conditions: 25° C., in H2O
Method: Relaxivity measurement and MRI were conducted on a Varian 9.4T MRI system (Palo Alto, Calif., USA). T1 was measured by inversion recovery spin echo in aqueous phantoms with concentrations 0.4, 0.2 0.1, 0.05, 0.025, 0.0125 and 0.00625 mM Gd. In vivo study was conducted on Wistar rats (male, weight 320-340 g) under 2% isoflurane anesthesia. CAs were injected (dosage: 0.04 mmol Gd/kg body weight) through tail vein. T1-weighted images were acquired every 6.4 s for 48 min with T1-weighted gradient echo sequence (TR/TE=50/3 ms, flip-angle=20 degree, resolution=[…], thickness=2 mm).

| relaxivity r1 [mM⁻¹ s⁻¹] | Compound |
| --- | --- |
| 4.1 | O=C([O-])CN(CCN(CC(=O)[O-])CC(=O)O)CCN(CC(=O)[O-])CC(=O)O.[Gd+3] [Gd-DTPA] |
| 3.9 | O=C([O-])CN1CCN(CC(=O)[O-])CCN(CC(=O)O)CCN(CC(=O)[O-])CC1.[Gd+3] [Gd-DOTA] |
